Article PMC6151511, “Rational Design of Nucleoside–Bile Acid Conjugates Incorporating a Triazole Moiety for Anticancer Evaluation and SAR Exploration” (Molecules : A Journal of Synthetic Chemistry and Natural …, 2017)

How the values were obtained:
Type in all cases: cell-based
K562 leukemia cells = assay: MTT assay, cell growth inhibition of K562 leukemia cells; settings: for IC50: Homo sapiens, K562, 72 h, MTT, 72 h incubation, mean of three independent experiments ± SD, IC50 > 50 means inhibition <20% at 50 μM, read-out: IC50 K562; for cytotoxicity against K562 (in words): 10, 25 and 50 μM, 72 h
Protocol: (§1) All conjugated compounds prepared via click chemistry and listed in Table 1 were evaluated in vitro for their cytotoxic activity against K562 leukemia cells and the colon cancer cell line HCT116. Normal human skin fibroblast cells were chosen as a control and cisplatin served as a reference compound. The cytotoxicity was evaluated using the MTT assay (details are reported in the Materials and Methods section). In all experiments the cell growth inhibition of K562 and HCT116 was determined for each compound at concentrations of 10, 25 and 50 μM after 72 h of treatment and up to 100 μM in the case of fibroblasts.
(§2) Cell growth inhibition assays were carried out using the leukemia cell line K562 and colon carcinoma HCT116. Cell lines were obtained from ATCC (Manassas, VA, USA) and maintained in RPMI 1640, supplemented with 10% fetal bovine serum (FBS), penicillin (100 Units mL^−1), streptomycin (100 μg mL^−1) and glutamine (2 mM) (complete medium); the pH of the medium was 7.2 and the incubation was performed at 37 °C in a 5% CO2 atmosphere. Adherent cells were routinely used at 70% of confluence and passaged every 3 days by treatment with 0.05% Trypsin-EDTA (Lonza, Walkersville, MD, USA). K562 cells were routinely fed every 3 days.
(§3) The antiproliferative activity of the compounds was tested using the 3-(4,5-dimethylthiozol-2-yl)2,5-diphenyltetrazolium bromide solution (MTT) assay. K562 and HCT116 were seeded in triplicate in 96-well trays respectively at the density of 5 × 10^3 and 10^4 in 50 μL of complete medium. Stock solutions (50 mM) of each compound were made in DMSO and diluted in complete medium to give final concentrations of 50, 25 and 10 μM. Untreated cells were placed in every plate as a negative control. The cells were exposed to the compounds, in 100 μL total volume, for 72 h.

HCT116 colon carcinoma = assay: MTT assay, cell growth inhibition of HCT116 colon carcinoma; settings: for IC50: MTT, 72 h incubation, mean of three independent experiments ± SD, IC50 > 50 means inhibition <20% at 50 μM; for cytotoxicity against HCT116 (in words): 10, 25 and 50 μM, 72 h
Protocol: as §1, §2, §3

[1] = system: Normal human skin fibroblast cells; assay: MTT assay, cytotoxicity on normal fibroblasts (control); settings: 72 h, up to 100 μM; for IC50: Homo sapiens, Skin fibroblast, MTT, 72 h incubation, mean of three independent experiments ± SD, IC50 > 100 means inhibition <10% at 100 μM, read-out: IC50 FIBRO
Protocol: as §1, §3

`COC(=O)CCC(C)[C@H]1CCC2C3C(CC[C@@]21C)[C@@]1(C)CC[C@@H](n2cc(CCCCC#Cc4cn([C@H]5C[C@H](O)[C@@H](CO)O5)c(=O)[nH]c4=O)nn2)CC1C[C@H]3O` (stereo partly drawn) [dU-CDC] gave an IC50 (K562 leukemia cells) of over 50 µM, an IC50 (HCT116 colon carcinoma; Homo sapiens, HCT-116, 72 h) of over 50 µM and an IC50 [1] of over 100 µM.

`COC(=O)CC[C@@H](C)[C@H]1CC[C@H]2[C@@H]3[C@@H](O)C[C@@H]4C[C@H](N=[N+]=[N-])CC[C@]4(C)[C@H]3CC[C@]12C` [3α-N3-UDC, methyl 3α-azido-7β-hydroxy-5β-cholan-24-oate] was tested, and the “cytotoxicity against K562 (in words)” value (K562 leukemia cells) was “active”, the IC50 (K562 leukemia cells) was 25 ± 1 µM and the “cytotoxicity against HCT116 (in words)” value (HCT116 colon carcinoma) was “active”. The IC50 (HCT116 colon carcinoma; Homo sapiens, HCT-116, 72 h) was 22 ± 1.5 µM, the IC50 [1] was over 100 µM and the “cytotoxicity towards fibroblast cells (in words)” value [1] was “not active”.

`CC(CCN=[N+]=[N-])[C@H]1CCC2C3C(CC[C@@]21C)[C@@]1(C)CC[C@@H](O)CC1C[C@H]3O` (stereo partly drawn) [23-N3-nor-CDC, 3α,7α-Dihydroxy-5β-23-azido-24-norcholane] was tested, and the IC50 (K562 leukemia cells) was 21 ± 1.2 µM, the IC50 (HCT116 colon carcinoma; Homo sapiens, HCT-116, 72 h) was 25 ± 2 µM and the IC50 [1] was 79 ± 3.1 µM.

In the case of `COC(=O)CCC(C)[C@H]1CCC2C3C(CC[C@@]21C)[C@@]1(C)CC[C@@H](n2cc(CCCCC#Cc4nc5c(=O)[nH]c(N)nc5n4[C@@H]4O[C@H](CO)[C@@H](O)[C@H]4O)nn2)CC1C[C@H]3O` (stereo partly drawn) [G-CDC], the IC50 (K562 leukemia cells) is reported as over 50 µM, the IC50 (HCT116 colon carcinoma; Homo sapiens, HCT-116, 72 h) is reported as at most 25 µM and the IC50 (HCT116 colon carcinoma) is reported as 25.3 ± 3.8 µM. The IC50 [1] was over 100 µM.

With `CC(CCC(=O)NCCS(=O)(=O)O)[C@H]1CCC2C3C(CC[C@@]21C)[C@@]1(C)CC[C@@H](n2cc(CCCCC#Cc4cn([C@H]5C[C@H](O)[C@@H](CO)O5)c(=O)[nH]c4=O)nn2)CC1C[C@@H]3O` (stereo partly drawn) [dU-TUDCA] the IC50 (HCT116 colon carcinoma; Homo sapiens, HCT-116, 72 h) was over 50 µM and the IC50 [1] was over 100 µM.

Compound `C#CCCCCC#Cc1nc2c(=O)[nH]c(N)nc2n1[C@@H]1O[C@H](CO)[C@@H](O)[C@H]1O` [ALK-G, 8-(1,7-Octadynyl)-guanosine] has an IC50 (K562 leukemia cells) of over 50 µM, an IC50 (HCT116 colon carcinoma; Homo sapiens, HCT-116, 72 h) of over 50 µM and an IC50 [1] of over 100 µM.

For `CC(CCn1cc(CCCCC#Cc2nc3c(=O)[nH]c(N)nc3n2[C@H]2C[C@H](O)[C@@H](CO)O2)nn1)[C@H]1CCC2C3C(CC[C@@]21C)[C@@]1(C)CC[C@@H](O)CC1C[C@@H]3O` (stereo partly drawn) [dG-nor-UDC], the IC50 (K562 leukemia cells) was over 50 µM, the IC50 (HCT116 colon carcinoma; Homo sapiens, HCT-116, 72 h) was over 50 µM and the IC50 [1] was over 100 µM.

`COC(=O)CC[C@@H](C)[C@H]1CC[C@H]2[C@@H]3[C@H](O)C[C@@H]4C[C@H](N=[N+]=[N-])CC[C@]4(C)[C@H]3CC[C@]12C` [3α-N3-CDC, methyl 3α-azido-7α-hydroxy-5β-cholan-24-oate] was tested, and the “cytotoxicity against K562 (in words)” value (K562 leukemia cells) was “active”, the IC50 (K562 leukemia cells) was 23 ± 2 µM and the “cytotoxicity against HCT116 (in words)” value (HCT116 colon carcinoma) was “active”. For the same compound, the IC50 (HCT116 colon carcinoma; Homo sapiens, HCT-116, 72 h) was 31 ± 2.3 µM, the IC50 [1] was over 100 µM and the “cytotoxicity towards fibroblast cells (in words)” value [1] was “not active”.

With `C#CCCCCC#Cc1nc2c(N)ncnc2n1[C@@H]1O[C@H](CO)[C@@H](O)[C@H]1O` [ALK-A, 8-(1,7-Octadynyl)-adenosine] the IC50 (K562 leukemia cells) was over 50 µM, the IC50 (HCT116 colon carcinoma; Homo sapiens, HCT-116, 72 h) was over 50 µM and the IC50 [1] was over 100 µM.

Compound `CC(CCC(=O)NCCS(=O)(=O)O)C1CCC2C3C(O)CC4CC(n5cc(CCCCC#Cc6nc7c(N)ncnc7n6C6OC(CO)C(O)C6O)nn5)CCC4(C)C3CCC12C` (stereo not drawn) [A-TUDCA] has an IC50 (K562 leukemia cells) of over 50 µM, an IC50 (HCT116 colon carcinoma; Homo sapiens, HCT-116, 72 h) of over 50 µM and an IC50 [1] of over 100 µM.

`CC(CCC(=O)NCCS(=O)(=O)O)[C@H]1CCC2C3C(CC[C@@]21C)[C@@]1(C)CC[C@@H](n2cc(CCCCC#Cc4nc5c(=O)[nH]c(N)nc5n4[C@H]4C[C@H](O)[C@@H](CO)O4)nn2)CC1C[C@@H]3O` (stereo partly drawn) [dG-TUDCA] showed an IC50 (K562 leukemia cells) of over 50 µM, an IC50 (HCT116 colon carcinoma; Homo sapiens, HCT-116, 72 h) of over 50 µM and an IC50 [1] of over 100 µM.

Compound `COC(=O)CCC(C)[C@H]1CCC2C3C(CC[C@@]21C)[C@@]1(C)CC[C@@H](n2cc(CCCCC#Cc4nc5c(=O)[nH]c(N)nc5n4[C@H]4C[C@H](O)[C@@H](CO)O4)nn2)CC1C[C@H]3O` (stereo partly drawn) [dG-CDC] has an IC50 (K562 leukemia cells) of over 50 µM, an IC50 (HCT116 colon carcinoma; Homo sapiens, HCT-116, 72 h) of over 50 µM and an IC50 [1] of over 100 µM.

`COC(=O)CCC(C)[C@H]1CCC2C3C(CC[C@@]21C)[C@@]1(C)CC[C@@H](n2cc(CCCCC#Cc4nc5c(=O)[nH]c(N)nc5n4[C@@H]4O[C@H](CO)[C@@H](O)[C@H]4O)nn2)CC1C[C@@H]3O` (stereo partly drawn) [G-UDC] gave an IC50 (K562 leukemia cells) of over 50 µM, an IC50 (HCT116 colon carcinoma; Homo sapiens, HCT-116, 72 h) of over 50 µM and an IC50 [1] of over 100 µM.

With `COC(=O)CCC(C)[C@H]1CCC2C3C(CC[C@@]21C)[C@@]1(C)CC[C@@H](n2cc(CCCCC#Cc4nc5c(=O)[nH]c(N)nc5n4[C@H]4C[C@H](O)[C@@H](CO)O4)nn2)CC1C[C@@H]3O` (stereo partly drawn) [dG-UDC] the IC50 (K562 leukemia cells) was over 50 µM, the IC50 (HCT116 colon carcinoma; Homo sapiens, HCT-116, 72 h) was over 50 µM and the IC50 [1] was over 100 µM.
